Source: publication PMC11329753, “Human mitochondrial carriers of the SLC25 family function as monomers exchanging substrates with a ping-pong kinetic mechanism” (The EMBO Journal, 2024)
One block for each molecule: values may come before it.

How the values were obtained:
[1] = target: T1, human dicarboxylate carrier (DIC, SLC25A10) (Homo sapiens, UniProt Q9UBX3, INS1GKP); experiment: nanoDSF thermal shift; type: binding; details: 10 mM malate; 20 mM HEPES pH 7.0, 50 mM NaCl, cardiolipin/LMNG; apo Tm 54.1 °C
T1 construct: GKP added at positions 2-4; N-terminal His8 tag with factor Xa site, tag removed by on-column Xa cleavage; codon-optimized, expressed in Saccharomyces cerevisiae BJ2168 mitochondria; purified in LMNG/cardiolipin; 31,923 Da; monomer
T1 sequence (Q9UBX3 with tags, fused parts or gaps INS1GKP): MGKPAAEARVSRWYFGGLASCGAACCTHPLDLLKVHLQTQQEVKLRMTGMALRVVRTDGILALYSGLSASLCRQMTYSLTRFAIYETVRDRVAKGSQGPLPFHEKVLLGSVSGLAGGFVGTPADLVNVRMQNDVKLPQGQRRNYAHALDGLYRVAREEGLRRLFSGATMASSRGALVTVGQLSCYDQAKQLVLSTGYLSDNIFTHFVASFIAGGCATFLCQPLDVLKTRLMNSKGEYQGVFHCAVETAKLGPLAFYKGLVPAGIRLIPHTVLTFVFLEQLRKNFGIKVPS

[2] = target: T2, human oxoglutarate carrier (OGC, SLC25A11) (Homo sapiens, UniProt Q02978); experiment: nanoDSF thermal shift; type: binding; details: 10 mM malate; 20 mM HEPES pH 7.0, 50 mM NaCl, cardiolipin/LMNG; apo Tm 51.0 °C
T2 construct: residues 2-13 deleted; N-terminal His8 tag with factor Xa site, tag removed by on-column Xa cleavage; codon-optimized, expressed in Saccharomyces cerevisiae W303.1B mitochondria; purified in LMNG/cardiolipin; 33,477 Da; monomer
T2 sequence (Q02978 14-314): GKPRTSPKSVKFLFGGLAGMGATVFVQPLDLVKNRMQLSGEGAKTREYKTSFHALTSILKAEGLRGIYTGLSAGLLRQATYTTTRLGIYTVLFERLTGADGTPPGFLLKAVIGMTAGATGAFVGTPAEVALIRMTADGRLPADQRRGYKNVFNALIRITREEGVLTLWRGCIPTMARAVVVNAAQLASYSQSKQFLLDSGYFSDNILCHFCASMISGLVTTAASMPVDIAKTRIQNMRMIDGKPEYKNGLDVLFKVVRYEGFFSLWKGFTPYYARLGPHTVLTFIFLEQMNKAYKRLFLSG

[3] = target: T2, human oxoglutarate carrier (OGC, SLC25A11); experiment: […]-malate uptake into proteoliposomes, homo-exchange, Michaelis-Menten fit; type: biochemical; details: labelled compound; internal malate 0.10-1.00 mM, external 0.5-20 μM; 20 mM HEPES pH 7.0, 50 mM NaCl, 5 mM MgCl2
[4] = target: T3, human aspartate/glutamate carrier 2 (AGC2, SLC25A13) (Homo sapiens, UniProt Q9UJS0); experiment: nanoDSF thermal shift; type: binding; details: 10 mM aspartate; 20 mM HEPES pH 7.0, 50 mM NaCl, cardiolipin/LMNG; apo Tm 55.4 °C
T3 construct: N-terminal His8 tag with TEV site, tag removed by TEV cleavage; codon-optimized, expressed in Saccharomyces cerevisiae W303.1B mitochondria; purified in LMNG/cardiolipin; 74 kDa protomer, homodimer via N-terminal domains
T3 sequence (Q9UJS0 2-675): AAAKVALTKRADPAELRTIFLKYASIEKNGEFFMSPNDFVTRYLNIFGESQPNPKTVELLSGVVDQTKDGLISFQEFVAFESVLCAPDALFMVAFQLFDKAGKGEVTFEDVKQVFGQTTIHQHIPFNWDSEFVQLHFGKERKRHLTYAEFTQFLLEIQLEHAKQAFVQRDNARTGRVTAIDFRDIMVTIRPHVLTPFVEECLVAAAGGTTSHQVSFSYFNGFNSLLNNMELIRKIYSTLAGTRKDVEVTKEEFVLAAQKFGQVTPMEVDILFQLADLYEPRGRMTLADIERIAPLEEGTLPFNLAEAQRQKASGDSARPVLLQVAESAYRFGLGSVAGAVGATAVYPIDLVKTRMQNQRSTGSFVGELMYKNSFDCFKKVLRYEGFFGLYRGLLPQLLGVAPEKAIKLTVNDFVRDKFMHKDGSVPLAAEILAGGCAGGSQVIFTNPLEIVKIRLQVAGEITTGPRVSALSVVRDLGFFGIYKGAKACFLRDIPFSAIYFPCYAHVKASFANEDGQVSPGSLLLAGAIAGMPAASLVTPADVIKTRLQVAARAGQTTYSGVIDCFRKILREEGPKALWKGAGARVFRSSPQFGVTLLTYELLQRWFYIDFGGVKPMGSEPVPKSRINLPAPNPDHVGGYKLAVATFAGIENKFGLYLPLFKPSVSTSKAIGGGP

[5] = target: T3, human aspartate/glutamate carrier 2 (AGC2, SLC25A13); experiment: […]-aspartate uptake into proteoliposomes, homo-exchange, Michaelis-Menten fit; type: biochemical; details: labelled compound; internal aspartate 0.10-1.00 mM, external 1.5-25 μM; 20 mM HEPES pH 7.4, 50 mM NaCl, 1 mM CaCl2
[6] = target: human citrate carrier (CIC, SLC25A1) (Homo sapiens, UniProt P53007); details: labelled compound; internal citrate 0.10-1.00 mM, external 1.0-25 μM; 20 mM HEPES pH 7.0, 50 mM NaCl, 5 mM MgCl2
human citrate carrier (CIC, SLC25A1), sequence (P53007 13-311): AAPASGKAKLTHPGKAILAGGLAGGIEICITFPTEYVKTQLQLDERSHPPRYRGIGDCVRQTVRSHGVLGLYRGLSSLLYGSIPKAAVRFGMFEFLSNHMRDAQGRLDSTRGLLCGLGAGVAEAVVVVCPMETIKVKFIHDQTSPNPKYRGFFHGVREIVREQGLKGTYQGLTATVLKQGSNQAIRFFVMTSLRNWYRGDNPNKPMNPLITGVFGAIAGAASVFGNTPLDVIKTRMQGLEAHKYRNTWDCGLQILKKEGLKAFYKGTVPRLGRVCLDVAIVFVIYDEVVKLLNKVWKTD

[7] = target: the molecule itself; experiment: SEC; 150 μL of purified carrier on Superdex 200 Increase 10/300 in buffer B (20 mM HEPES pH 7.0, 50 mM NaCl, 0.1 mg/mL tetraoleoyl cardiolipin/0.1% (w/v) lauryl maltose neopentyl glycol); sized against ferritin, aldolase, conalbumin and ovalbumin; total weight corrected for bound lipid/detergent (≈135 kDa)

thermal shift [1]: 2.5 °C
thermal shift [2]: 5.6 °C
Molecule: O=C(O)C[C@H](O)C(=O)O [malate]
apparent Km [3]: Km plotted against Vmax for the various chemical gradients for (C) OGC

thermal shift [4]: 1.6 °C
Molecule: N[C@@H](CC(=O)O)C(=O)O [aspartate]
apparent Km [5]: chemical gradients for (C) OGC, (F) CIC, (I) DIC, and (L) AGC2

Molecule: O=C(O)CC(O)(CC(=O)O)C(=O)O [citrate]
apparent Km [6]: Km plotted against Vmax for the various chemical gradients for (C) OGC, (F) CIC

B1: human mitochondrial aspartate/glutamate carrier 2 (natural protein, UniProt Q9UJS0 1-675, looked up)
chain: MAAAKVALTKRADPAELRTIFLKYASIEKNGEFFMSPNDFVTRYLNIFGESQPNPKTVELLSGVVDQTKDGLISFQEFVAFESVLCAPDALFMVAFQLFDKAGKGEVTFEDVKQVFGQTTIHQHIPFNWDSEFVQLHFGKERKRHLTYAEFTQFLLEIQLEHAKQAFVQRDNARTGRVTAIDFRDIMVTIRPHVLTPFVEECLVAAAGGTTSHQVSFSYFNGFNSLLNNMELIRKIYSTLAGTRKDVEVTKEEFVLAAQKFGQVTPMEVDILFQLADLYEPRGRMTLADIERIAPLEEGTLPFNLAEAQRQKASGDSARPVLLQVAESAYRFGLGSVAGAVGATAVYPIDLVKTRMQNQRSTGSFVGELMYKNSFDCFKKVLRYEGFFGLYRGLLPQLLGVAPEKAIKLTVNDFVRDKFMHKDGSVPLAAEILAGGCAGGSQVIFTNPLEIVKIRLQVAGEITTGPRVSALSVVRDLGFFGIYKGAKACFLRDIPFSAIYFPCYAHVKASFANEDGQVSPGSLLLAGAIAGMPAASLVTPADVIKTRLQVAARAGQTTYSGVIDCFRKILREEGPKALWKGAGARVFRSSPQFGVTLLTYELLQRWFYIDFGGVKPMGSEPVPKSRINLPAPNPDHVGGYKLAVATFAGIENKFGLYLPLFKPSVSTSKAIGGGP
notes: human aspartate/glutamate carrier 2 (AGC2, SLC25A13), UniProt Q9UJS0; TEV site between the His8 tag and the protein; protomers printed as 74 kDa each; also called AGC2; SLC25A13; not shown: His8, N-terminal, cleaved
stoichiometry N [7]: 2
